ChEMBL document CHEMBL1201862, “PubChem BioAssay data set” (2004)
Counter-ions that a name gives are not always drawn.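 Cells were grown in 96-well plates and exposed to each compound for 48 hours at five concentrations; endpoints were interpolated linearly between bracketing concentrations, or set to the highest concentration if not reached. GI50: concentration for 50% inhibition of growth.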 The source made the active and inactive calls. Cut-off read from the data, not from the text of the source: active = GI50 up to about 1.1 µM and inactive = higher.

Key:
Experiment in all cases: NCI tumour cell line growth inhibition, 48 h
[1] = system: SF-268
[2] = system: SK-OV-3
[3] = system: UACC-62
[4] = system: U-251
[5] = system: TK-10
[6] = system: NCI-H23
[7] = system: HCC 2998
[8] = system: PC-3
[9] = system: SW-620
[10] = system: SK-MEL-28
[11] = system: UO-31
[12] = system: EKVX
[13] = system: NCI-H226
[14] = system: RPMI-8226
[15] = system: MOLT-4
[16] = system: SK-MEL-5
[17] = system: CAKI-1
[18] = system: SNB-19
[19] = system: HOP-92
[20] = system: Hs-578T

Structure (SMILES)	GI50 [1]	GI50 [2]	GI50 [3]	GI50 [4]	GI50 [5]	GI50 [6]	GI50 [7]	GI50 [8]	GI50 [9]	GI50 [10]	GI50 [11]	GI50 [12]	GI50 [13]	GI50 [14]	GI50 [15]	GI50 [16]	GI50 [17]	GI50 [18]	GI50 [19]	GI50 [20]
CN1CN(c2ccccc2)C2(CCN(Cc3csc4ccccc34)CC2)C1=O	22.3 µM (inactive)	38.2 µM (inactive)	22.8 µM (inactive)	8.55 µM (inactive)	12.9 µM (inactive)	6.44 µM (inactive)	13.4 µM (inactive)	9.27 µM (inactive)	13.3 µM (inactive)	22.1 µM (inactive)	3.71 µM (inactive)	7.53 µM (inactive)	21 µM (inactive)	2.16 µM (inactive)	4.32 µM (inactive)	7.78 µM (inactive)	7.45 µM (inactive)	38.4 µM (inactive)		
COc1ccc(Cc2ccccc2C(=O)O)c2ccccc12	22.8 µM (inactive)	40.6 µM (inactive)	16.3 µM (inactive)	25.7 µM (inactive)	24 µM (inactive)	25.5 µM (inactive)		30.6 µM (inactive)	31.6 µM (inactive)	25.1 µM (inactive)	32.1 µM (inactive)	26.4 µM (inactive)	39.4 µM (inactive)	29.4 µM (inactive)		17.3 µM (inactive)	35.3 µM (inactive)	37.3 µM (inactive)	18.8 µM (inactive)	12.1 µM (inactive)
CC(N)C(=O)c1ccc(O)cc1 (stereo unspecified)	> 100 µM (inactive)	> 100 µM (inactive)	> 100 µM (inactive)	> 100 µM (inactive)	> 100 µM (inactive)	> 100 µM (inactive)	> 100 µM (inactive)		> 100 µM (inactive)	> 100 µM (inactive)	> 100 µM (inactive)	> 100 µM (inactive)	> 100 µM (inactive)	> 100 µM (inactive)	> 100 µM (inactive)	> 100 µM (inactive)	> 100 µM (inactive)	> 100 µM (inactive)	> 100 µM (inactive)	
CC(=O)c1cccc(Nc2nc3ccccc3c3[nH]c4ccccc4c23)c1	3.67 µM (inactive)	5.42 µM (inactive)	1.94 µM (inactive)	3.98 µM (inactive)	7.55 µM (inactive)	9.38 µM (inactive)		4.65 µM (inactive)	4.81 µM (inactive)		3.33 µM (inactive)	3.05 µM (inactive)		3.03 µM (inactive)			3.8 µM (inactive)	16.2 µM (inactive)	2.87 µM (inactive)	10.9 µM (inactive)
COc1ccc(-c2cc(-c3cc(C)cc(Br)c3O)no2)cc1	4.17 µM (inactive)	6.3 µM (inactive)	6.47 µM (inactive)	5.66 µM (inactive)	19.8 µM (inactive)	14.7 µM (inactive)		4.44 µM (inactive)	16.3 µM (inactive)	18.7 µM (inactive)	12.5 µM (inactive)	25.2 µM (inactive)	5.18 µM (inactive)	11.2 µM (inactive)	13.5 µM (inactive)	7 µM (inactive)	6.98 µM (inactive)	10.5 µM (inactive)		4.86 µM (inactive)
CN(N=O)C(=N)NC(=O)c1ccccc1	> 100 µM (inactive)	> 100 µM (inactive)	56.5 µM (inactive)	> 100 µM (inactive)	> 100 µM (inactive)	> 100 µM (inactive)		> 100 µM (inactive)	> 100 µM (inactive)		> 100 µM (inactive)	61.2 µM (inactive)	> 100 µM (inactive)	> 100 µM (inactive)	> 100 µM (inactive)	45.4 µM (inactive)	> 100 µM (inactive)	> 100 µM (inactive)	> 100 µM (inactive)	> 100 µM (inactive)
CC(=O)OC1CCN(C(=O)c2ccccc2)CC1CC1(c2cc3ccccc3[nH]2)OCCO1 (stereo unspecified)		> 100 µM (inactive)	36.6 µM (inactive)	77.4 µM (inactive)	53.2 µM (inactive)	69.2 µM (inactive)	47.3 µM (inactive)	34.9 µM (inactive)	> 100 µM (inactive)	> 100 µM (inactive)	29 µM (inactive)	83 µM (inactive)	> 100 µM (inactive)	22.3 µM (inactive)	32.2 µM (inactive)	44 µM (inactive)	> 100 µM (inactive)	> 100 µM (inactive)	48.9 µM (inactive)	
COC(=O)/C=C/c1ccc2nncnc2c1.COC(=O)/C=C\c1ccc2nncnc2c1	75.7 µM (inactive)	> 100 µM (inactive)	15.7 µM (inactive)	79.1 µM (inactive)	> 100 µM (inactive)	10 µM (inactive)		34.7 µM (inactive)	87.9 µM (inactive)	43.8 µM (inactive)	56.1 µM (inactive)	> 100 µM (inactive)	> 100 µM (inactive)	> 100 µM (inactive)	55.6 µM (inactive)	8.17 µM (inactive)	> 100 µM (inactive)	57.4 µM (inactive)		9.14 µM (inactive)
NC(CC(=O)O)(Cc1ccccc1)C(=O)O (stereo unspecified)		> 100 µM (inactive)	> 100 µM (inactive)	> 100 µM (inactive)	> 100 µM (inactive)	> 100 µM (inactive)		> 100 µM (inactive)	> 100 µM (inactive)	> 100 µM (inactive)	> 100 µM (inactive)	> 100 µM (inactive)	> 100 µM (inactive)	> 100 µM (inactive)	> 100 µM (inactive)	> 100 µM (inactive)	> 100 µM (inactive)	> 100 µM (inactive)	> 100 µM (inactive)	> 100 µM (inactive)
CSc1ncnc2c1ncn2C1OC(CO)C(O)OC1O (stereo unspecified)	7.69 µM (inactive)	20 µM (inactive)	2.96 µM (inactive)	9.35 µM (inactive)	0.219 µM (active)	0.721 µM (active)		2.26 µM (inactive)	1.51 µM (inactive)	13.7 µM (inactive)	1.79 µM (inactive)	0.624 µM (active)		1.06 µM (active)	0.281 µM (active)	3.73 µM (inactive)	2.58 µM (inactive)	10.7 µM (inactive)	0.822 µM (active)	20.9 µM (inactive)
CC(=O)O[C@H]1CC[C@H]2[C@@H]3CCC4=CC(=O)C=C[C@]4(O)[C@H]3CC[C@]12C			42.3 µM (inactive)	46 µM (inactive)	> 100 µM (inactive)	9.91 µM (inactive)	45.1 µM (inactive)	30.1 µM (inactive)	25.5 µM (inactive)	28.2 µM (inactive)	55.5 µM (inactive)	31.7 µM (inactive)	16.6 µM (inactive)	3.47 µM (inactive)	8 µM (inactive)	4.6 µM (inactive)	> 55.1 µM (inactive)	71.6 µM (inactive)	23.9 µM (inactive)	
CCN1CCN(c2nc3ccc([N+](=O)[O-])cc3nc2C(=O)c2ccccc2)CC1	19.1 µM (inactive)	14.8 µM (inactive)	16.9 µM (inactive)	17.3 µM (inactive)	19.9 µM (inactive)	17.2 µM (inactive)	15.3 µM (inactive)	17.3 µM (inactive)	21 µM (inactive)		12.6 µM (inactive)	16.1 µM (inactive)	11.8 µM (inactive)	12.8 µM (inactive)	3.23 µM (inactive)		16.7 µM (inactive)	26 µM (inactive)	17.8 µM (inactive)	
O=C1CCCNn2c(nc3ncccc3c2=O)N1	> 100 µM (inactive)	> 100 µM (inactive)	> 100 µM (inactive)	> 100 µM (inactive)	> 100 µM (inactive)	> 100 µM (inactive)		> 100 µM (inactive)	> 100 µM (inactive)		> 100 µM (inactive)	> 100 µM (inactive)	> 100 µM (inactive)	> 100 µM (inactive)	> 100 µM (inactive)	> 100 µM (inactive)	> 100 µM (inactive)	> 100 µM (inactive)	> 100 µM (inactive)	> 100 µM (inactive)
Cc1c2ccncc2c(C)c2c1[nH]c1ccc(Oc3ccccc3)cc12	3.39 µM (inactive)	6.46 µM (inactive)	1.74 µM (inactive)	1.67 µM (inactive)	8.18 µM (inactive)	11.6 µM (inactive)	1.94 µM (inactive)		2.67 µM (inactive)	3.09 µM (inactive)	11 µM (inactive)	5.82 µM (inactive)	14.3 µM (inactive)	1.88 µM (inactive)	2.15 µM (inactive)	2.97 µM (inactive)	3.61 µM (inactive)	10.6 µM (inactive)	6.05 µM (inactive)	
O=C(/C=C/c1ccc(O)c(-c2cc(C(=O)/C=C/c3ccc(O)cc3)c(O)cc2O)c1)c1ccc(O)cc1O [RHUSCHALCONE VI]	17.5 µM (inactive)	16.1 µM (inactive)	9.16 µM (inactive)	15.8 µM (inactive)	> 50 µM (inactive)	23.9 µM (inactive)		22.5 µM (inactive)	19.5 µM (inactive)	10.4 µM (inactive)	> 50 µM (inactive)	> 50 µM (inactive)		18.6 µM (inactive)	16.1 µM (inactive)	27.8 µM (inactive)	> 50 µM (inactive)	28.6 µM (inactive)	24.6 µM (inactive)	30 µM (inactive)
CN1[C@@H]2C[C@@H](OC(=O)[C@H](CO)c3ccccc3)C[C@H]1[C@@H]1O[C@@H]12 [SCOPOLAMINE HYDROBROMIDE]		> 100 µM (inactive)	> 100 µM (inactive)		> 100 µM (inactive)	> 100 µM (inactive)		> 100 µM (inactive)	> 100 µM (inactive)	> 100 µM (inactive)	> 100 µM (inactive)	> 100 µM (inactive)	> 100 µM (inactive)	> 100 µM (inactive)	> 100 µM (inactive)	> 100 µM (inactive)	> 100 µM (inactive)		> 100 µM (inactive)	> 100 µM (inactive)
